# Experimental data reported in US7816535B2, “Vinyl-phenyl derivatives for inflammation and immune-related uses” (Synta Pharmaceuticals Corp., priority 2006, dated 2010).
# Where a name gives a salt, the structure may show the parent alone.
# Test system: IL-2 production
# Experiment: Inhibition of IL-2 production in PHA-activated Jurkat cells (ELISA)
# Type: cell-based
# Conditions: Homo sapiens, Jurkat, 20 h, PHA 2.5 μg/mL, IL-2 ELISA
# Procedure: Jurkat cells were placed in a 96 well plate (0.5 million cells per well in 1% FBS medium) then a test compound of this invention was added at different concentrations. After 10 minutes, the cells were activated with PHA (final concentration 2.5 μg/mL) and incubated for 20 hours at 37° C. under CO2. The final volume was 200 μL. Following incubation, the cells were centrifuged and the supernatants collected and stored at −70° C. prior to assaying for IL-2 production. A commercial ELISA kit (IL-2 Eli-pair, Diaclone Research, Besancon, France) was used to detect production of IL-2, from which dose response curves were obtained. The IC50 value was calculated as the concentration at which 50% of maximum IL-2 production after stimulation was inhibited versus a non-stimulation control.
row,SMILES,IC50 [nM]
1,"CC1=C(c2ccc(NC(=O)c3ncncc3C)cc2)CN(c2nccs2)CC1 [Compound 77, 5-Methyl-pyrimidine-4-carboxylic acid [4-(1-thiazol-2-yl-4-methyl-1,2,5,6-tetrahydro-pyridin-3-yl)-phenyl]-amide]",99.3
2,"CCOC(=O)N1CCC(c2ccc(NC(=O)c3c(F)cccc3F)cc2)=C(C)C1 [Compound 16, Ethyl 4-(4-(2,6-difluorobenzamido)phenyl)-3-methyl-5,6-dihydropyridine-1(2H)-carboxylate]",24.6
3,"CC1=C(c2ccc(NC(=O)c3ccncc3C)cc2)C[C@@H]([C@@](C)(O)CO)CC1 [Compound 9, N-(4-((S)-5-((R)-1,2-dihydroxypropan-2-yl)-2-methylcyclohex-1-enyl)phenyl)-3-methylisonicotinamide]",748
4,"O=C(Nc1ccc(C2=C(CO)CCC2)cc1)c1c(F)cccc1F [Compound 31, 2,6-Difluoro-N-[4-(2-hydroxymethyl-cyclopent-1-enyl)-phenyl]-benzamide]",> 1000
5,"CC(C)=C(c1ccccc1)c1ccc(NC(=O)c2c(F)cccc2F)cc1 [Compound 92, 2,6-Difluoro-N-[4-(2-methyl-1-phenyl-propenyl)-phenyl]-benzamide]",43.8
6,"CC1=C(c2ccc(NC(=O)c3c(F)cccc3F)cc2)CN(c2nc(C)co2)CC1 [Compound 80, 2,6-Difluoro-N-{4-[1-(4-methyl-oxazol-2-yl)-4-methyl-1,2,5,6-tetrahydro-pyridin-3-yl]-phenyl}-benzamide]",98.5
7,"CC1=C(c2ccc(NC(=O)c3ccncc3F)cc2)CN(c2cncnc2)CC1 [Compound 90, N-[4-(1-pyrimidin-5-yl-4-methyl-1,2,5,6-tetrahydro-pyridin-3-yl)-phenyl]-3-fluoro-isonicotinamide]",126
8,"CC1=C(c2ccc(NC(=O)c3c(F)cccc3F)nc2)CN(c2nccs2)CC1 [Compound 72, 2,6-Difluoro-N-[5-(1-thiazol-2-yl-4-methyl-1,2,5,6-tetrahydro-pyridin-3-yl)-pyridin-2-yl]-benzamide, hydrochloride]",35
9,"CC1=C(c2ccc(NC(=O)c3c(F)cccc3F)cc2)CN(Cc2ccccc2)CC1 [Compound 11, N-(4-(1-benzyl-4-methyl-1,2,5,6-tetrahydropyridin-3-yl)phenyl)-2,6-difluorobenzamide]",> 1000
10,"CC1=C(c2ccc(NC(=O)c3ncncc3C)cc2)CCCC1 [Compound 26, 5-Methyl-pyrimidine-4-carboxylic acid [4-(2-methyl-cyclohex-1-enyl)-phenyl]-amide]",165
11,"CCS(=O)(=O)N1CCC(C)=C(c2ccc(NC(=O)c3ccncc3C)cc2)C1 [Compound 60, N-[4-(1-ethanesulfonyl-4-methyl-1,2,5,6-tetrahydro-pyridin-3-yl)-phenyl]-3-methyl-isonicotinamide]",229
12,"O=CC1=C(c2ccc(NC(=O)c3c(F)cccc3F)cc2)CCC1 [Compound 32, 2,6-Difluoro-N-[4-(2-formyl-cyclopent-1-enyl)-phenyl]-benzamide]",> 1000
13,"CCOC(=O)C1=C(c2ccc(NC(=O)c3c(F)cccc3F)cc2)CCC1 [Compound 30, 2-[4-(2,6-Difluoro-benzoylamino)phenyl]-cyclopent-1-enecarboxylic acid ethyl ester]",300
14,"C=CCOC(=O)N1CCC(C)=C(c2ccc(NC(=O)c3ccncc3F)cc2)C1 [Compound 53, N-[4-(1-allyloxycarbonyl-4-methyl-1,2,5,6-tetrahydro-pyridin-3-yl)-phenyl]-3-fluoro-isonicotinamide]",81.3
15,"O=CC1=C(c2ccc(NC(=O)c3c(F)cccc3F)cc2)CCCC1 [Compound 100, N-[4-(2-formyl-cyclohex-1-enyl)-phenyl]-2,6-difluoro-benzamide]",90
16,"O=C(Nc1ccc(C2=C(CO)CCCC2)cc1)c1c(F)cccc1F [Compound 22, N-[4-(2-hydroxymethyl-cyclohex-1-enyl)-phenyl]-2,6-difluoro-benzamide]",721
